Results from patent US20260091020A1, “TREATMENT OF ACUTE CANNABINOID OVERDOSE” (Anebulo Pharmaceuticals, Inc., priority 2022, published 2026).
Like-named read-outs stand apart in the source and are kept apart here.

Key:
[1] = test system: central nervous system effects of THC; assay: Phase 2 randomized, double-blind, placebo-controlled THC challenge study, PD endpoints (10.5 mg THC + 50 or 100 mg Compound 1); format: in vivo, human; conditions: 10.5 mg THC alone (THC/placebo); score of at least 20/100 on VAS feeling high scale
[2] = Plasma PK of ANEB-001 and THC, 30 mg or 10 mg oral Compound 1 with 21 mg THC (Example 4); format: in vivo, human; conditions: for concentration at 0 h / concentration at 20 min / concentration at 40 min / concentration at 1 h / concentration at 2 h / concentration at 3 h / concentration at 4 h / concentration at 5 h / concentration at 24 h / AUC(0-t) / Cmax / Tmax: human, in vivo; for concentration at 0 h: 00H00M; for concentration at 20 min: 00H20M; for concentration at 40 min: 00H40M; for concentration at 1 h: 01H00M; for concentration at 2 h: 02H00M; for concentration at 3 h: 03H00M; for concentration at 4 h: 04H00M; for concentration at 5 h: 05H00M; for concentration at 24 h: 24H00M; for Tmax: read-out: THC plasma tmax, Median
Procedure: Following the general methods of Example 2, the study design was adjusted such that groups received either (a) THC (21 mg)+placebo or (b) THC (21 mg)+Compound 1 (30 mg) (FIG. 14) or either (a) THC (21 mg)+placebo or (b) THC (21 mg)+Compound 1 (10 mg) (FIG. 15). […] Summary of pharmacokinetics of THC with 30 mg ANEB-001 challenge (FIG. 18A and FIG. 18B), AUC after 5 hours (FIG. 18C), AUC last (FIG. 18D) and Cmax (FIG. 18E).
Summary of pharmacokinetics for 30 mg ANEB-001 and 10 mg ANEB-001 challenge with 21 mg THC administration in plasma (FIGS. 19A and 19B); AUC after 5 hours for 10 mg ANEB-001 and 30 mg ANEB-001 (FIG. 19C), AUC last (FIG. 19D), and Cmax (FIG. 19E).
All PK parameter calculations were based on actual sampling time. For calculation of PK parameters, all BLQ concentrations that were between the first and last non-BLQ values were dropped (treated as ‘missing’). For calculation of AUClast and t1/2, additionally all values that were BLQ after the last non-BLQ value were dropped (treated as missing). If data points for concentrations were missing, the AUC parameters were derived by interpolating with regard to the 2 neighboring non-missing concentrations. AUC was calculated using the log-linear trapezoidal rule.
Reporting of drug concentration data. The concentrations are summarized (mean, SD, % CV, median, Min and Max values) by treatment and time, and are also presented graphically as mean over time, with standard deviation as error bars. For graphical and summary purposes of drug concentrations, values below the limit of quantification (BLQ) are set to zero. The SD and CVT are not reported if the mean is 0.
Reporting of PK parameters. The individual PK parameters (except tmax and tlag) are summarized (mean, SD, CV, geometric mean, geometric CV, median, M in and Max) per treatment group and a selection of the PK parameters are presented graphically as boxplots. For tmax and tlag, the median, Min and Max statistics are reported. Boxplots present the median (horizontal solid line), the 25%-75% distribution (IQR), with 1.5× the IQR as whiskers.

[3] = 21 mg THC + 30 mg ANEB-001, read-out: THC in Plasma (concentration), Mean
[4] = 21 mg THC + 30 mg ANEB-001, read-out: THC in Plasma (concentration), Median
[5] = 21 mg, 21 mg THC + Placebo, read-out: THC in Plasma (concentration), Mean
[6] = 21 mg, 21 mg THC + Placebo, read-out: THC in Plasma (concentration), Median

CCCCCc1cc(O)c2c(c1)OC(C)(C)[C@@H]1CCC(C)=C[C@@H]21 [THC, Δ9-tetrahydrocannabinol]
Proportion of subjects reporting feeling high [1]: 75% | THC Dose normalized Cmax, GeoMean ([2]; 21 mg THC + 30 mg ANEB-001): 0.4482 ng/mL/mg | THC Dose normalized Cmax, Mean ([2]; 21 mg THC + 30 mg ANEB-001): 0.4658 ng/mL/mg | THC Dose normalized Cmax, Median ([2]; 21 mg THC + 30 mg ANEB-001): 0.442 ng/mL/mg | THC plasma tlag, Median ([2]; 21 mg THC + 30 mg ANEB-001): 0 h | THC Dose normalized Cmax, GeoMean ([2]; 21 mg THC + Placebo): 0.2634 ng/mL/mg | THC Dose normalized Cmax, Mean ([2]; 21 mg THC + Placebo): 0.2965 ng/mL/mg | THC Dose normalized Cmax, Median ([2]; 21 mg THC + Placebo): 0.260 ng/mL/mg | THC plasma AUC5H, Mean ([2]; 21 mg THC + Placebo): 14.6 ng·h/mL | THC plasma tlag, Median ([2]; 21 mg THC + Placebo): 0 h | concentration at 0 h [2, 3]: 0.0163 ng/mL | concentration at 0 h [2, 4]: 0 ng/mL | concentration at 20 min [2, 3]: 4.16 ng/mL | concentration at 20 min [2, 4]: 3.48 ng/mL | concentration at 40 min [2, 3]: 8.94 ng/mL | concentration at 40 min [2, 4]: 8.4 ng/mL | concentration at 1 h [2, 3]: 7.45 ng/mL | concentration at 1 h [2, 4]: 7.31 ng/mL | concentration at 2 h [2, 3]: 4.07 ng/mL | concentration at 2 h [2, 4]: 4.01 ng/mL | concentration at 3 h [2, 3]: 2.46 ng/mL | concentration at 3 h [2, 4]: 2.03 ng/mL | concentration at 4 h [2, 3]: 1.22 ng/mL | concentration at 4 h [2, 4]: 1.28 ng/mL | concentration at 5 h [2, 3]: 0.744 ng/mL | concentration at 5 h [2, 4]: 0.684 ng/mL | concentration at 24 h [2, 3]: 0.0551 ng/mL | concentration at 24 h [2, 4]: 0 ng/mL | AUC(0-t) ([2]; 21 mg THC + 30 mg ANEB-001, read-out: THC plasma AUC5H, GeoMean): 16.3 ng·h/mL | AUC(0-t) ([2]; 21 mg THC + 30 mg ANEB-001, read-out: THC plasma AUC5H, Mean): 17 ng·h/mL | AUC(0-t) ([2]; 21 mg THC + 30 mg ANEB-001, read-out: THC plasma AUC5H, Median): 16.1 ng·h/mL | AUC(0-t) ([2]; 21 mg THC + 30 mg ANEB-001, read-out: THC plasma AUClast, GeoMean): 17.9 ng·h/mL | AUC(0-t) ([2]; 21 mg THC + 30 mg ANEB-001, read-out: THC plasma AUClast, Mean): 19.3 ng·h/mL | AUC(0-t) ([2]; 21 mg THC + 30 mg ANEB-001, read-out: THC plasma AUClast, Median): 18.4 ng·h/mL | Cmax ([2]; 21 mg THC + 30 mg ANEB-001, read-out: THC plasma Cmax, GeoMean): 9.41 ng/mL | Cmax ([2]; 21 mg THC + 30 mg ANEB-001, read-out: THC plasma Cmax, Mean): 9.78 ng/mL | Cmax ([2]; 21 mg THC + 30 mg ANEB-001, read-out: THC plasma Cmax, Median): 9.28 ng/mL | Tmax ([2]; 21 mg THC + 30 mg ANEB-001): 40.2 min | concentration at 0 h [2, 5]: 0 ng/mL | concentration at 0 h [2, 6]: 0 ng/mL | concentration at 20 min [2, 5]: 2.22 ng/mL | concentration at 20 min [2, 6]: 2.01 ng/mL | concentration at 40 min [2, 5]: 6.1 ng/mL | concentration at 40 min [2, 6]: 5.46 ng/mL | concentration at 1 h [2, 5]: 5.78 ng/mL | concentration at 1 h [2, 6]: 5.47 ng/mL | concentration at 2 h [2, 5]: 2.85 ng/mL | concentration at 2 h [2, 6]: 1.86 ng/mL | concentration at 3 h [2, 5]: 3.23 ng/mL | concentration at 3 h [2, 6]: 1.47 ng/mL | concentration at 4 h [2, 5]: 1.66 ng/mL | concentration at 4 h [2, 6]: 0.894 ng/mL | concentration at 5 h [2, 5]: 1.06 ng/mL | concentration at 5 h [2, 6]: 0.456 ng/mL | concentration at 24 h [2, 5]: 0.0206 ng/mL | concentration at 24 h [2, 6]: 0 ng/mL | AUC(0-t) ([2]; 21 mg, 21 mg THC + Placebo, read-out: THC plasma AUC5H, GeoMean): 12 ng·h/mL | AUC(0-t) ([2]; 21 mg, 21 mg THC + Placebo, read-out: THC plasma AUC5H, Median): 9.32 ng·h/mL | AUC(0-t) ([2]; 21 mg, 21 mg THC + Placebo, read-out: THC plasma AUClast, GeoMean): 13 ng·h/mL | AUC(0-t) ([2]; 21 mg, 21 mg THC + Placebo, read-out: THC plasma AUClast, Mean): 18.3 ng·h/mL | AUC(0-t) ([2]; 21 mg, 21 mg THC + Placebo, read-out: THC plasma AUClast, Median): 9.32 ng·h/mL | Cmax ([2]; 21 mg, 21 mg THC + Placebo, read-out: THC plasma Cmax, GeoMean): 5.53 ng/mL | Cmax ([2]; 21 mg, 21 mg THC + Placebo, read-out: THC plasma Cmax, Mean): 6.23 ng/mL | Cmax ([2]; 21 mg, 21 mg THC + Placebo, read-out: THC plasma Cmax, Median): 5.47 ng/mL | Tmax ([2]; 21 mg THC + Placebo): 40.2 min
